Like-named read-outs stand apart in the source and are kept apart here.
Legend:
Cem/TK^− = test: Cytostatic assay, thymidine kinase-deficient CEM/TK^− cells; format: cell-based, human; conditions: Homo sapiens, CEM-TK(-)
HeLa/TK^− = test: Cytostatic assay, HeLa/TK^− cells; format: cell-based; conditions: Homo sapiens, HeLa
Text: (§1) The cell lines employed were L1210/0 (a leukemia cell line), FM3A/0 (a breast cancer cell line), Cem/0 (an acute lymphoblastic leukemia cell line) and HeLa (a cervical cell line).

[1] = Stability in human serum by in situ 31P NMR; format: in vitro ADME; conditions: 37° C., after 12 hours and 30 minutes
Protocol: The stability of the prodrug CPF-373 in the presence of human serum was studied using in situ ^31P NMR (202 MHz). The ProTide CPF-373 (1) (5.0 mg) was dissolved in DMSO (0.05 mL) and D2O (0.15 mL). Then the sample was transferred into an NMR tube, which was inserted in the NMR chamber at 37° C. (with enough solvent to obtain a control NMR reading of the blank). Then 0.3 ml human serum was quickly added to the sample in the NMR tube. NMR experiments were programmed to record data every 15 minutes for 12 hours and 30 minutes. Because of excess noise and poor shimming profiles (most likely due to the biological media and concentration), individual spectra were further processed. After normal Fourier transform processing, each spectrum was deconvoluted (Lorentz-Gauss deconvolution) to reveal solely the frequency and area of spectral peaks without the baseline. Data recorded were processed and analysed with the Bruker Topspin 2.1 program.
Chemical stability studies on the prodrug CPF-373 (1) have been performed by exposing the compound to human serum and to aqueous buffers (pH 1.0 and 8.0) using in situ ^31P NMR. […]
The stability of compound CPF 386 in the presence of human serum was investigated using in situ ^31P NMR. A control ^31P NMR data of compound CPF 386 in DMSO and D2O were recorded. […] The ^31P NMR data were recorded every 15 minutes over 14 h. […]

U87 = test: Cytostatic assay, U87 cells; format: cell-based; conditions: Homo sapiens, U-87 MG, read-out: IC50 U87
Protocol: All cells were maintained in Dulbecco's modified Eagle's medium (DMEM) (Invitrogen, Carlsbad, Calif.) with 10% foetal bovine serum (FBS) (Biochrom AG, Berlin, Germany), 10 mM Hepes and 1 mM Sodium Pyruvate (Invitrogen). Cells were grown at 37° C. in a humidified incubator with a gas phase of 5% CO2.
After 24 hours, an equal volume of fresh medium containing the test compounds was added. On day 5, cells were trypsinized and counted in a Coulter counter (Analis, Suarlée, Belgium). […] The cells were allowed to proliferate for 48 h (L1210) or 72 hours (CEM) and were then counted in a Coulter counter.

Cem/hEnt-1 = test: Cytostatic assay, CEM cells containing the hEnt1 transporter; format: cell-based
Text: Data are mean (±SD) of at least two to four independent experiments. Table 8 identifies the phosphoramidate motif of compounds embodying the present invention, as discussed above with respect to Table 6, but with “Naph” standing for 1-naphthyl.

[2] = Stability in buffer at pH 8 by 31P NMR; format: physicochemical; conditions: 14 hours
Protocol: The stability of the prodrug CPF-373 towards hydrolysis at pH=8 was studied using in situ ^31P NMR (202 MHz). The ProTide CPF-373 (1) (4.9 mg) was dissolved in MeOD (0.1 mL) after which 0.5 mL buffer (pH=8) (prepared from a solution of 0.1 M Na2HPO4, which was adjusted by 0.1 M HCl) was added. Then the sample was transferred into an NMR tube, and a ^31P NMR experiment was performed at 37° C. recording the data every 12 minutes for 14 hours. Data were processed and analysed with the Bruker Topspin 2.1 program.
A chemical hydrolysis was evaluated under experimental conditions at pH 1 and pH 8 and monitored by ^31P NMR. During the assay (14 h) under acidic conditions (pH 1) only two peaks representing the two diastereoisomers were recorded.

human TP = target: T1, human TP (Homo sapiens, UniProt P19971); test: Phosphorolysis by human TP, HPLC; conditions: 100 μM compound, room temperature, 0-40 min
T1 sequence (P19971 11-482): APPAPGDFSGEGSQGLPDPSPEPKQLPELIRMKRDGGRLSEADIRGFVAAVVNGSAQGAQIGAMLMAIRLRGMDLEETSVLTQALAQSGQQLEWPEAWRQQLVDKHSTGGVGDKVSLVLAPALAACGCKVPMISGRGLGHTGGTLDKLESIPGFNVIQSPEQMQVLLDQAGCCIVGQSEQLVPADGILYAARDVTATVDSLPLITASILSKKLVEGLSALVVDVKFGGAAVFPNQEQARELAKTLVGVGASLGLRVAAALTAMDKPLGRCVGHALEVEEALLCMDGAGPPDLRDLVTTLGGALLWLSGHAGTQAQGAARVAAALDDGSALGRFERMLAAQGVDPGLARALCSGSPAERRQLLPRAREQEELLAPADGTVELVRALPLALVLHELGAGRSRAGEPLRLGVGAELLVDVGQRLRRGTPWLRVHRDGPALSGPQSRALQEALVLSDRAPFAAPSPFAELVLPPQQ
Protocol: Reaction mixtures containing 100 μM test compound and recombinant TP or UP (human TP: 8.6 ng/μL; E. coli TP: 3.0 ng/μL; human UP: 4 ng/mL) in a total volume of 500 μL reaction buffer (10 mM TrisHCl; 300 μM NaCl; 1 mM EDTA; 2 mM KH2PO4/K2HPO4) were incubated at room temperature. At different time points (i.e. 0, 20, 40 min) 100 μL aliquots of the reaction mixtures were withdrawn and heated at 95° C. for 3 min to inactivate the enzyme. […] The separation of Urd from uracil was performed by a linear gradient from 100% separation buffer (see above) to 60% separation buffer+40% acetonitrile (3 min 100% separation buffer; 6 min linear gradient of 100% separation buffer to 60% separation buffer+40% acetonitrile; 6 min 60% separation buffer+40% acetonitrile, followed by equilibration at 100% separation buffer).

HeLa = test: Cytostatic assay, HeLa cells; format: cell-based; conditions: Homo sapiens, HeLa; for CC50: Table 1, read-out: CC50 HeLa; for IC50: Table 6, read-out: IC50 HeLa
Text: as §1

L1210/TK^− = test: Cytostatic assay, thymidine kinase-deficient L1210/TK^− cells; format: cell-based, murine; conditions: Mus musculus; for IC50: L1210
[3] = Homo sapiens, CCRF-CEM, read-out: IC50 Cem/hEnt-1
[4] = Table 3, read-out: IC50 L1210/TK−
[5] = Table 6, read-out: IC50 L1210/TK^−

Row | SMILES | IC50 (Cem/TK^−; Table 3, read-out: IC50 CEM/TK−) | IC50 (Cem/TK^−; Table 6, read-out: IC50 Cem/TK^−) | CC50 (HeLa/TK^−; Table 1, read-out: CC50 HeLa/TK^−) | IC50 (HeLa/TK^−; Table 6, read-out: IC50 HeLa/TK^−) | unchanged compound after incubation in human serum [1] | IC50 (U87) | IC50 (Cem/hEnt-1; [3]) | IC50 (Cem/hEnt-1; read-out: IC50 Cem/hEnt-1 + NBMPR, in the presence of NBMPR) | IC50 (Cem/hEnt-1; read-out: IC50 Cem/hEnt-1 + dipyridamole, in the presence of dipyridamole) | Stability towards hydrolysis at pH 8 [2] | Phosphorolysis by human TP (human TP) | CC50 (HeLa) | IC50 (HeLa) | IC50 (L1210/TK^−; [4]) | IC50 (L1210/TK^−; [5]) | IC50 (U87; Table 3) | CC50 (L1210/TK^−; L1210, Table 1, read-out: CC50 L1210/TK^−)
1 | C[C@H](NP(=O)(OC[C@H]1O[C@@H](n2cc(F)c(=O)[nH]c2=O)CC1O)Oc1cccc2ccccc12)C(=O)OCc1ccccc1 (stereo partly drawn) [CPF 373, 5-Fluoro-2′deoxyuridine-5′-O-[1-naphthyl (benzoxy-L-alaninyl)] phosphate] | 320 nM | 310 ± 60 nM | 2500 ± 1300 nM | 2500 ± 1300 nM | 73% | 35 nM | 50 ± 20 nM | 260 nM | 130 nM | full stability | fully stable | 65 ± 13 nM | 65 ± 13 nM | 27 nM | 45 ± 27 nM |  | 
2 | O=c1[nH]c(=O)n([C@H]2C[C@H](O)[C@@H](CO)O2)cc1F [5-FdUrd, 5-fluoro-2′-deoxyuridine, reference compound] |  |  |  |  |  |  | 40 ± 20 nM |  |  |  |  | 29 ± 7 nM | 50 ± 11 nM | 3100 nM | 3000 ± 100 nM | 7 ± 1 nM | 3100 ± 200 nM

Source: patent US10993957B2 (NuCana plc, priority 2011, dated 2021)
